The text below walks through data of BindingDB's records for patent US20250388560 (Hitgen, 2025).

A word on the Kd: it is the equilibrium constant for the complex coming apart. A higher Kd goes with weaker binding.

Chain of E3 ubiquitin-protein ligase TRIM21 (P19474 whole entry): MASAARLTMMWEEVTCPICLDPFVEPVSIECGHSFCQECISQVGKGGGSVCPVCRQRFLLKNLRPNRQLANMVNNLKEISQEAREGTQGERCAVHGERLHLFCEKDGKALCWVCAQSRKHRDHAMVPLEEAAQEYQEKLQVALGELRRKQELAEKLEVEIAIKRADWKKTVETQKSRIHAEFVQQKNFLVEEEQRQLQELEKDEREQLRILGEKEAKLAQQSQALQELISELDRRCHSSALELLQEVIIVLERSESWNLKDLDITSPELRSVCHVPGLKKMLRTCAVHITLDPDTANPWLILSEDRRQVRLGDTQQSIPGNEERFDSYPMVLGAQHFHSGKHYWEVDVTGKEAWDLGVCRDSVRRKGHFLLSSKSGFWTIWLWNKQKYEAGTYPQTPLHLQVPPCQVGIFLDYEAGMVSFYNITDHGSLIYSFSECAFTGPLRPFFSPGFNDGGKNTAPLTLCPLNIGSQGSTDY

The target in the test is E3 ubiquitin-protein ligase TRIM21 (UniProt P19474). Kind of test: Detection of SPR Binding Assays (Surface Plasmon Resonance Binding Assay) of TRIM21 Compounds. As for the experimental part:
The protein fixation buffer, the running buffer A and the running buffer B were prepared and filtered through a […] membrane prior to use. TRIM21 Protein FixationThe running buffer A was used as the protein fixation buffer. The protein fixation buffer and the TRIM21 protein were mixed to prepare a 40.0 µg/mL mixed solution.
The molecule `CSc1cc(F)ccc1-c1ccc(C(=O)N(C)Cc2cc[nH]c(=O)c2)c(S(C)(=O)=O)c1` [US20250388560, Compound 56] yielded an equilibrium dissociation constant (Kd) of under 0.01 µM. Then `CN(CC1CCCCC1)C(=O)c1ccc(-c2cccc3cc[nH]c23)cc1S(C)(=O)=O` [US20250388560, Compound 51], with over 10 µM; and `CSc1ccccc1-c1ccc(C(=O)N(C)CCN2CCOCC2)c(S(C)(=O)=O)c1` [US20250388560, Compound 21], with over 10 µM. Then `CN(CC1CCCCC1)C(=O)c1ccc(-c2ccccc2)cc1S(C)(=O)=O` [US20250388560, Compound 58], with over 10 µM; and `CSc1ccccc1-c1ccc(C(=O)N(C)CCN2CCCCC2)c(S(C)(=O)=O)c1` [US20250388560, Compound 22], with over 10 µM; and `Cc1cccc(-c2ccc(C(=O)N(C)CC3CCCCC3)c(S(C)(=O)=O)c2)c1` [US20250388560, Compound 44], with over 10 µM. With `CSc1cc(F)ccc1-c1ccc(C(=O)N(C)CC2CCOCC2)c(S(C)(=O)=O)c1` [US20250388560, Compound 55] the figure was under 0.01 µM.

In the case of `CN(CC1CCCCC1)C(=O)c1ccc(-c2cccc3[nH]ccc23)cc1S(C)(=O)=O` [US20250388560, Compound 50], the Kd was over 10 µM. Then `COc1cc(F)ccc1-c1ccc(C(=O)N(C)Cc2cc[nH]c(=O)c2)c(S(C)(=O)=O)c1` [US20250388560, Compound 57], with under 0.01 µM; and `CN(CC1CCCCC1)C(=O)c1ccc(-c2cccc3occc23)cc1S(C)(=O)=O` [US20250388560, Compound 48], with over 10 µM.
